Assay results published in patent US8546440B2, “Substituted bicyclic imidazole derivatives as gamma secretase modulators” (Janssen Pharmaceuticals, Inc., priority 2008, dated 2013).

Columns and labels:
Format in all cases: cell-based
Aβ42 [1] = assay: Screening for γ-secretase-modulating activity, Method 1: Aβ42 sandwich ELISA in supernatant of SKNBE2 cells carrying APP 695 wild type (Tables 12a, 12b); conditions: Table 12b, Method 1, SKNBE2 cells carrying APP 695 wild type, cell supernatant ELISA, averaged IC50 values, percentage of control vs log concentration
Procedure: (§1) Screening was carried out using SKNBE2 cells carrying the APP 695—wild type, grown in Dulbecco's Modified Eagle's Medium/Nutrient mixture F-12 (DMEM/NUT-mix F-12) (HAM) provided by Gibco (cat no. 31330-38) containing 5% Serum/Fe supplemented with 1% non-essential amino acids. Cells were grown to near confluency.
(§2) The screening was performed using the assay as described in Citron et al (1997) Nature Medicine 3: 67. Briefly, cells were plated in a 96-well plate at about 10^5 cells/ml one day prior to addition of compounds. Compounds were added to the cells in Ultraculture (Lonza, BE12-725F) supplemented with 1% glutamine (Invitrogen, 25030-024) for 18 hours. The media were assayed by two sandwich ELISAs, for Aβ42 and Aβtotal. Toxicity of the compounds was assayed by WST-1 cell proliferation reagent (Roche, 1 644 807) according to the manufacturer's protocol.
To quantify the amount of Aβ42 in the cell supernatant, commercially available Enzyme-Linked-Immunosorbent-Assay (ELISA) kits were used (Innotest® β-Amyloid(1-42), Innogenetics N.V., Ghent, Belgium). The Aβ42 ELISA was performed essentially according to the manufacturer's protocol. Briefly, the standards (dilutions of synthetic Aβ1-42) were prepared in polypropylene Eppendorf with final concentrations of 8000 down to 3.9 pg/ml (1/2 dilution step). Samples, standards and blanks (100 μl) were added to the anti-Aβ42-coated plate supplied with the kit (the capture antibody selectively recognizes the C-terminal end of the antigen). The plate was allowed to incubate 3 h at 25° C. in order to allow formation of the antibody-amyloid complex. Following this incubation and subsequent wash steps a selective anti-Aβ-antibody conjugate (biotinylated 3D6) was added and incubated for a minimum of 1 hour in order to allow formation of the antibody-Amyloid-antibody-complex. After incubation and appropriate wash steps, a Streptavidine-Peroxidase-Conjugate was added, followed 30 minutes later by an addition of 3,3′,5,5′-tetramethylbenzidine (TMB)/peroxide mixture, resulting in the conversion of the substrate into a coloured product. This reaction was stopped by the addition of sulfuric acid (0.9 N) and the colour intensity was measured by means of photometry with an ELISA-reader with a 450 nm filter.
(§3) To obtain the values reported in Table 12a, the sigmoidal dose response curves were analysed by computerised curve-fitting, with percent of inhibition plotted against compound concentration. A 4-parameter equation (model 205) in XLfit was used to determine the IC50. The top and the bottom of the curve were fixed to 100 and 0, respectively, and the hill slope was fixed to 1. The IC50 represents the concentration of a compound that is required for inhibiting a biological effect by 50% (Here, it is the concentration where Aβ peptide level is reduced by 50%).
(§4) To obtain the values reported in Table 12b, the data are calculated as percentage of the maximum amount of amyloid Beta 42 measured in the absence of the test compound. The sigmoidal dose response curves were analyzed using non-linear regression analysis with percentage of the control plotted against the log concentration of the compound. A 4-parameter equation was used to determine the IC50. The values reported in Table 12b are averaged IC50 values.

Aβtotal [2] = assay: Screening for γ-secretase-modulating activity, Method 1: Aβtotal sandwich ELISA in supernatant of SKNBE2 cells carrying APP 695 wild type (Tables 12a, 12b); conditions: Table 12b, Method 1, SKNBE2 cells carrying APP 695 wild type, cell supernatant ELISA, averaged IC50 values
Procedure: as §1, §2
To quantify the amount of Aβtotal in the cell supernatant, samples and standards were added to a 6E10-coated plate. The plate was allowed to incubate overnight at 4° C. in order to allow formation of the antibody-amyloid complex. Following this incubation and subsequent wash steps a selective anti-Aβ-antibody conjugate (biotinylated 4G8) was added and incubated for a minimum of 1 hour in order to allow formation of the antibody-Amyloid-antibody-complex. After incubation and appropriate wash steps, a Streptavidine-Peroxidase-Conjugate was added, followed 30 minutes later by an addition of Quanta Blu fluorogenic peroxidase substrate according to the manufacturer's instructions (Pierce Corp., Rockford, Ill.).
as §3, §4

Aβ42 [3] = assay: Screening for γ-secretase-modulating activity, Method 2: Aβ42 Alphalisa in supernatant of SKNBE2 cells carrying APP 695 wild type (Table 12c); conditions: Method 2, Table 12c, incubated overnight
Procedure: as §1, with “Invitrogen” for “Gibco”, “10371-029)” for “31330-38)”, “acids, 1-glutamine 2 mM, Hepes 15 mM, penicillin 50 U/ml (units/ml) en streptomycin 50 μg/ml.” for “acids.”
(§5) The screening was performed using a modification of the assay as described in Citron et al (1997) Nature Medicine 3: 67. Briefly, cells were plated in a 384-well plate at 10^4 cells/well in Ultraculture (Lonza, BE12-725F) supplemented with 1% glutamine (Invitrogen, 25030-024), 1% non-essential amino acid (NEAA), penicillin 50 U/ml en streptomycin 50 μg/ml in the presence of test compound at different test concentrations. The cell/compound mixture was incubated overnight at 37° C., 5% CO2, The next day the media were assayed by two sandwich immuno-assays, for Aβ42 and Aβtotal.
(§6) Aβtotal and Aβ42 concentrations were quantified in the cell supernatant using the Aphalisa technology (Perkin Elmer). Alphalisa is a sandwich assay using biotinylated antibody attached to streptavidin coated donorbeads and antibody conjugated to acceptor beads. In the presence of antigen, the beads come into close proximity. The excitation of the donor beads provokes the release of singlet oxygen molecules that trigger a cascade of energy transfer in the acceptor beads, resulting in light emission. To quantify the amount of Aβ42 in the cell supernatant, monoclonal antibody specific to the C-terminus of Aβ42 (JRF/cAβ42/26) was coupled to the receptor beads and biotinylated antibody specific to the N-terminus of Aβ (JRF/AβN/25) was used to react with the donor beads. To quantify the amount of Aβtotal in the cell supernatant, monoclonal antibody specific to the N-terminus of Aβ (JRF/AβN/25) was coupled to the receptor beads and biotinylated antibody specific to the mid region of Aβ (biotinylated 4G8) was used to react with the donor beads.
as §4, with “12c,” for “12b,”, “IC50.” for “IC50. The values reported in Table 12b are averaged IC50 values.”

Aβtotal [4] = assay: Screening for γ-secretase-modulating activity, Method 2: Aβtotal Alphalisa in supernatant of SKNBE2 cells carrying APP 695 wild type (Table 12c); conditions: Method 2, Table 12c, incubated overnight
Procedure: as §1, with “Invitrogen” for “Gibco”, “10371-029)” for “31330-38)”, “acids, 1-glutamine 2 mM, Hepes 15 mM, penicillin 50 U/ml (units/ml) en streptomycin 50 μg/ml.” for “acids.”
as §5, §6
as §4, with “12c,” for “12b,”, “IC50.” for “IC50. The values reported in Table 12b are averaged IC50 values.”

SMILES: CC(=O)N(C)Cc1c(-c2ccccc2Cl)nc2c(Nc3ccc(-n4cnc(C)c4)c(F)c3)cccn12 [Compound 102]
- IC50 (Aβ42 [1]; Homo sapiens): 10 nM
- IC50 (Aβtotal [2]; Homo sapiens): > 3020 nM
- IC50 (Aβ42 [3]; Homo sapiens): 14 nM
- IC50 (Aβtotal [4]; Homo sapiens): > 10000 nM

SMILES: COCc1c(-c2ccccc2Cl)nc2c(Nc3ccc(-n4cnc(C)c4)c(F)c3)cccn12 [Compound 103]
- IC50 (Aβ42 [1]): 13 nM
- IC50 (Aβtotal [2]): > 3020 nM
- IC50 (Aβ42 [3]): 19 nM
- IC50 (Aβtotal [4]): > 10000 nM

SMILES: COc1cc(Nc2cccn3cc(CC(F)(F)F)nc23)ccc1-n1cnc(C)c1 [Compound 109]
- IC50 (Aβ42 [1]): 15 nM
- IC50 (Aβtotal [2]): > 3020 nM
- IC50 (Aβ42 [3]): 60 nM
- IC50 (Aβtotal [4]): > 10000 nM

SMILES: CCOC(=O)c1cn2cccc(Nc3ccc(-n4cnc(C)c4)c(OC)c3)c2n1 [Compound 113]
- IC50 (Aβ42 [1]): 38 nM
- IC50 (Aβtotal [2]): > 3020 nM
- IC50 (Aβ42 [3]): 145 nM
- IC50 (Aβtotal [4]): > 10000 nM

SMILES: Cc1cn(-c2ccc(Nc3cccn4cc(C5CCOCC5)nc34)cc2F)cn1 [Compound 118]
- IC50 (Aβ42 [1]; Homo sapiens): 331 nM
- IC50 (Aβtotal [2]; Homo sapiens): > 3020 nM
- IC50 (Aβ42 [3]; Homo sapiens): 372 nM
- IC50 (Aβtotal [4]; Homo sapiens): > 10000 nM

SMILES: Cc1cn(-c2ccc(Nc3cccn4cc(C)nc34)cc2F)cn1 [Compound 119]
- IC50 (Aβ42 [1]; Homo sapiens): 1660 nM
- IC50 (Aβtotal [2]; Homo sapiens): > 3020 nM
- IC50 (Aβ42 [3]; Homo sapiens): 603 nM
- IC50 (Aβtotal [4]; Homo sapiens): 6170 nM

SMILES: Cc1cn(-c2ccc(Nc3cccn4cc(C5CC5)nc34)cc2F)cn1 [Compound 120]
- IC50 (Aβ42 [1]; Homo sapiens): 589 nM
- IC50 (Aβtotal [2]; Homo sapiens): > 30200 nM
- IC50 (Aβ42 [3]; Homo sapiens): 363 nM
- IC50 (Aβtotal [4]; Homo sapiens): > 10000 nM

SMILES: COc1cc(Nc2cccn3c(C)c(-c4ccccc4Cl)nc23)ccc1-n1cnc(C)n1 [Compound 124]
- IC50 (Aβ42 [1]; Homo sapiens): 11 nM
- IC50 (Aβtotal [2]; Homo sapiens): > 3020 nM
- IC50 (Aβ42 [3]; Homo sapiens): 18 nM
- IC50 (Aβtotal [4]; Homo sapiens): 9120 nM

SMILES: COCc1c(-c2ccc(F)cc2)nc2c(Nc3ccc(-n4cnc(C)n4)c(OC)c3)cccn12 [Compound 125]
- IC50 (Aβ42 [1]): 30 nM
- IC50 (Aβtotal [2]): > 3020 nM
- IC50 (Aβ42 [3]): 51 nM
- IC50 (Aβtotal [4]): 7940 nM

SMILES: COCCCc1c(-c2ccc(F)cc2)nc2c(Nc3ccc(-n4cnc(C)n4)c(OC)c3)cccn12 [Compound 129]
- IC50 (Aβ42 [1]): 46 nM
- IC50 (Aβtotal [2]): > 10000 nM
- IC50 (Aβ42 [3]): 74 nM
- IC50 (Aβtotal [4]): > 10000 nM

SMILES: COc1cc(Nc2cccn3cc(-c4cc(C#N)ccc4C)nc23)ccc1-n1cnc(C)n1 [Compound 135]
- IC50 (Aβ42 [1]; Homo sapiens): 631 nM
- IC50 (Aβtotal [2]; Homo sapiens): > 10000 nM
- IC50 (Aβ42 [3]; Homo sapiens): 102 nM
- IC50 (Aβtotal [4]; Homo sapiens): > 10000 nM

SMILES: COc1cc(Nc2cccn3cc(C4CCOCC4)nc23)ccc1-n1cnc(C)n1 [Compound 136]
- IC50 (Aβ42 [1]; Homo sapiens): 676 nM
- IC50 (Aβtotal [2]; Homo sapiens): > 30200 nM
- IC50 (Aβ42 [3]; Homo sapiens): 813 nM
- IC50 (Aβtotal [4]; Homo sapiens): > 10000 nM

SMILES: COc1cc(Nc2cccn3cc(CC4CCOCC4)nc23)ccc1-n1cnc(C)n1 [Compound 137]
- IC50 (Aβ42 [1]; Homo sapiens): 1380 nM
- IC50 (Aβtotal [2]; Homo sapiens): > 3020 nM
- IC50 (Aβ42 [3]; Homo sapiens): 871 nM
- IC50 (Aβtotal [4]; Homo sapiens): > 10000 nM

SMILES: COc1nc(Nc2cccn3cc(C)nc23)ccc1-n1cnc(C)c1 [Compound 144]
- IC50 (Aβ42 [1]): 100 nM
- IC50 (Aβtotal [2]): > 3020 nM
- IC50 (Aβ42 [3]): 120 nM
- IC50 (Aβtotal [4]): > 10000 nM

SMILES: Cc1cn(-c2ccc(Nc3cc(F)cn4cc(C5CCOCC5)nc34)cc2F)cn1 [Compound 149]
- IC50 (Aβ42 [1]): 389 nM
- IC50 (Aβtotal [2]): > 10000 nM
- IC50 (Aβ42 [3]): 174 nM
- IC50 (Aβtotal [4]): > 10000 nM

SMILES: COc1cc(Nc2cc(C(F)(F)F)cn3cc(C(C)(C)O)nc23)ccc1-n1cnc(C)c1 [Compound 151]
- IC50 (Aβ42 [1]): 513 nM
- IC50 (Aβtotal [2]): > 3020 nM
- IC50 (Aβ42 [3]): 219 nM
- IC50 (Aβtotal [4]): > 10000 nM

SMILES: CCOC(=O)c1cn2cc(C(F)(F)F)cc(Nc3ccc(-n4cnc(C)c4)c(OC)c3)c2n1 [Compound 155]
- IC50 (Aβ42 [1]): 24 nM
- IC50 (Aβtotal [2]): > 3020 nM
- IC50 (Aβ42 [3]): 28 nM
- IC50 (Aβtotal [4]): > 10000 nM

SMILES: COc1cc(Nc2cc(Cl)nn3cc(-c4cc(F)ccc4C)nc23)ccc1-n1cnc(C)c1 [Compound 157]
- IC50 (Aβ42 [1]): 102 nM
- IC50 (Aβtotal [2]): > 3020 nM
- IC50 (Aβ42 [3]): 50 nM
- IC50 (Aβtotal [4]): 7410 nM

SMILES: Cc1cn(-c2ccc(Nc3cc(C(F)(F)F)nn4cc(C5CCOCC5)nc34)cc2F)cn1 [Compound 168]
- IC50 (Aβ42 [1]): 3020 nM
- IC50 (Aβtotal [2]): > 3020 nM
- IC50 (Aβ42 [3]): 380 nM
- IC50 (Aβtotal [4]): 10000 nM

SMILES: Cc1cn(-c2ccc(Nc3cc(C(F)(F)F)nn4cc(C)nc34)cc2F)cn1 [Compound 173]
- IC50 (Aβ42 [1]): > 3020 nM
- IC50 (Aβtotal [2]): > 3020 nM
- IC50 (Aβ42 [3]): > 10000 nM
- IC50 (Aβtotal [4]): > 10000 nM

SMILES: COc1cc(Nc2nccn3cc(-c4ccc(F)cc4)nc23)ccc1-n1cnc(C)c1 [Compound 175]
- IC50 (Aβ42 [1]): 41 nM
- IC50 (Aβtotal [2]): > 3020 nM
- IC50 (Aβ42 [3]): 72 nM
- IC50 (Aβtotal [4]): 5250 nM

SMILES: COc1cc(Nc2nccn3cc(-c4ccc(F)cc4C)nc23)ccc1-n1cnc(C)n1 [Compound 176]
- IC50 (Aβ42 [1]; Homo sapiens): 324 nM
- IC50 (Aβtotal [2]; Homo sapiens): > 10000 nM
- IC50 (Aβ42 [3]; Homo sapiens): 107 nM
- IC50 (Aβtotal [4]; Homo sapiens): 8320 nM
